Results taken from patent US20190192699A1, “NUCLEAR IMAGING AND RADIOTHERAPEUTICS AGENTS TARGETING CARBONIC ANHYDRASE IX AND USES THEREOF” (THE JOHNS HOPKINS UNIVERSITY, priority 2016, published 2019).
“And” between values parts separate entries of the source, which are not always exact repeats. Identical values can stand only once. “Also recorded” adds a separate entry of the source.

Assays:
SK-RC-52 xenografts = assay: Biodistribution of [111In]XYIMSR-01 and [177Lu]XYIMSR-01; type: in vivo, mice
Description: (§1) Cell Lines and Mouse Models. Animal experiments were performed in accordance with protocols approved by the Johns Hopkins Animal Care and Use Committee (ACUC). Six-week-old female NOD/SCID mice were purchased from the Animal Resource Core of the Sidney Kimmel Comprehensive Cancer Center of Johns Hopkins and were subcutaneously injected in the lower left flank or upper right flank with 1×10^6 SK-RC-52 cells in RPMI 1640 GlutaMAX™ media (Life Technologies, Frederick, Md.) supplemented with 1% fetal bovine serum (FBS). Mice were monitored for tumor size and used for SPECT/CT imaging when the size of the tumor reached 100 mm^3.
Biodistribution of [^111In]XYIMSR-01 and [^177Lu]XYIMSR-01. Mice bearing SK-RC-52 xenografts at lower left flank were injected intravenously with 740 kBq (20 μCi) of [^111In]XYIMSR-01, or [^177Lu]XYIMSR-01 in 200 μL of PBS. For competitive blocking, same tumor bearing mice were injected with 740 kBq (20 μCi) of [^111In]XYIMSR-01 and 200 nmole of 1 in 200 μL of PBS. At 1 h, 4 h, 8 h, 24 h and 48 h post-injection, mice were sacrificed by cervical dislocation and the blood was immediately collected by cardiac puncture. Heart, lungs, pancreas, spleen, fat, brain, muscle, small intestines, liver, stomach, kidney, urinary bladder, and tumor were collected. Each organ was weighed and the tissue radioactivity was measured with an automated gamma counter (1282 Compugamma CS, Pharmacia/LKBNuclear, Inc., Mt. Waverly, Vic. Australia). The percentage of injected dose per gram of tissue (% ID/g) was calculated by comparison with samples of a standard dilution of the initial dose. All measurements were corrected for radioactive decay.
Data were expressed as mean±standard deviation (SD). Prism software (GraphPAD, San Diego, Calif.) was used to determine statistical significance. Statistical significance was calculated using a paired t test. P-values […] were considered significant.

[1] = test system: CAIX-expressing SK-RC-52 tumors; assay: SPECT/CT imaging of [111In]XYIMSR-01; type: in vivo, mice; conditions: 14.8 MBq (400 μCi) via tail vein
Description: as §1
SPECT/CT imaging of [^111In]XYIMSR-01. Mice harboring subcutaneous SK-RC-52 tumors with the lower left flank were injected with 14.8 MBq (400 μCi) of [^111In]XYIMSR-01 in 250 μL of PBS (pH=7.0) intravenously (tail vein). Anesthesia was then induced with 3% isofluorane and maintained at 2% isoflurane. Physiologic temperature was maintained with an external light source while the mouse was on the gantry. Imaging employed a CT-equipped Gamma Medica-Ideas SPECT scanner (Northridge, Calif.). SPECT data were acquired in 64 projections at 65 s per projection using medium energy pinhole collimators. A CT scan was performed in 512 projections at the end of each SPECT scan for anatomic co-registration. […]

[2] = 24 hr + Block (200 nmole of 1 co-injected)
[3] = 48 hr + Block (200 nmole of 1 co-injected)

For `CC(CCC(=O)N[C@@H](CC(=O)N[C@@H](CC(=O)N[C@@H](CCCCn1cc(CCCC(=O)Nc2nnc(S(N)(=O)=O)s2)nn1)C(=O)NCCOCCOCCNC(=O)CN1CCN(CC(=O)[O-])CCN(CC(=O)[O-])CCN(CC(=O)[O-])CC1)C(=O)O)C(=O)O)(c1ccc(O)cc1)c1ccc(O)cc1.[111In+3]` [[^111In]XYIMSR-01], the “Biodistribution: Lung” value (SK-RC-52 xenografts; [2]) was 0.12 ± 0.02 % ID/g, the “Biodistribution: Muscle” value (SK-RC-52 xenografts; [2]) was 0.02 ± 0.00 % ID/g and the “Biodistribution: Pancreas” value (SK-RC-52 xenografts; [2]) was 0.03 ± 0.00 % ID/g. For the same compound, the “Biodistribution: Small intestine” value (SK-RC-52 xenografts; [2]) was 0.08 ± 0.01 % ID/g, the “Biodistribution: Spleen” value (SK-RC-52 xenografts; [2]) was 0.08 ± 0.01 % ID/g and the “Biodistribution: Stomach” value (SK-RC-52 xenografts; [2]) was 0.14 ± 0.02 % ID/g. For the same compound, the “Biodistribution: Tumor” value (SK-RC-52 xenografts; [2]) was 1.41 ± 0.20 % ID/g, the Tumor/Blood ratio (SK-RC-52 xenografts; [2]) was 45.2 ± 9.7 and the Tumor/Kidney ratio (SK-RC-52 xenografts; [2]) was 2.1 ± 0.3. The Tumor/Muscle ratio (SK-RC-52 xenografts; [2]) was 91.4 ± 11.1, the “Biodistribution: Bladder” value (SK-RC-52 xenografts; 24 hr post-injection) was 0.74 ± 0.17 % ID/g and the “Biodistribution: Blood” value (SK-RC-52 xenografts; 24 hr post-injection) was 0.15 ± 0.02 % ID/g. The “Biodistribution: Brain” value (SK-RC-52 xenografts; 24 hr post-injection) was 0.71 ± 0.85 % ID/g, the “Biodistribution: Fat” value (SK-RC-52 xenografts; 24 hr post-injection) was 0.28 ± 0.19 % ID/g and the “Biodistribution: Heart” value (SK-RC-52 xenografts; 24 hr post-injection) was 1.16 ± 0.20 % ID/g. For the same compound, the “Biodistribution: Kidney” value (SK-RC-52 xenografts; 24 hr post-injection) was 15.29 ± 1.69 % ID/g, the “Biodistribution: Liver” value (SK-RC-52 xenografts; 24 hr post-injection) was 3.02 ± 3.46 % ID/g and the “Biodistribution: Lung” value (SK-RC-52 xenografts; 24 hr post-injection) was 11.01 ± 3.71 % ID/g. For the same compound, the “Biodistribution: Muscle” value (SK-RC-52 xenografts; 24 hr post-injection) was 0.35 ± 0.12 % ID/g, the “Biodistribution: Pancreas” value (SK-RC-52 xenografts; 24 hr post-injection) was 0.69 ± 0.18 % ID/g and the “Biodistribution: Small intestine” value (SK-RC-52 xenografts; 24 hr post-injection) was 2.11 ± 0.33 % ID/g. For the same compound, the “Biodistribution: Spleen” value (SK-RC-52 xenografts; 24 hr post-injection) was 0.69 ± 0.39 % ID/g, the “Biodistribution: Stomach” value (SK-RC-52 xenografts; 24 hr post-injection) was 3.31 ± 1.25 % ID/g and the “Biodistribution: Tumor” value (SK-RC-52 xenografts; 24 hr post-injection) was 25.6 % ID/g and 25.62 ± 17.67 % ID/g. The Tumor/Blood ratio (SK-RC-52 xenografts; 24 hr post-injection) was 178.1±145.4 and 178, the Tumor/Kidney ratio (SK-RC-52 xenografts; 24 hr post-injection) was 1.7±1.2 and 1.7 and the Tumor/Muscle ratio (SK-RC-52 xenografts; 24 hr post-injection) was 68.4±29.0 and 68. The “Biodistribution: Bladder” value (SK-RC-52 xenografts; [3]) was 0.14 ± 0.03 % ID/g, the “Biodistribution: Blood” value (SK-RC-52 xenografts; [3]) was 0.03 ± 0.00 % ID/g and the “Biodistribution: Brain” value (SK-RC-52 xenografts; [3]) was 0.03 ± 0.01 % ID/g. For the same compound, the “Biodistribution: Fat” value (SK-RC-52 xenografts; [3]) was 0.03 ± 0.01 % ID/g, the “Biodistribution: Heart” value (SK-RC-52 xenografts; [3]) was 0.04 ± 0.01 % ID/g and the “Biodistribution: Kidney” value (SK-RC-52 xenografts; [3]) was 0.45 ± 0.09 % ID/g. For the same compound, the “Biodistribution: Liver” value (SK-RC-52 xenografts; [3]) was 0.13 ± 0.04 % ID/g, the “Biodistribution: Lung” value (SK-RC-52 xenografts; [3]) was 0.09 ± 0.02 % ID/g and the “Biodistribution: Muscle” value (SK-RC-52 xenografts; [3]) was 0.02 ± 0.00 % ID/g. For the same compound, the “Biodistribution: Pancreas” value (SK-RC-52 xenografts; [3]) was 0.03 ± 0.01 % ID/g, the “Biodistribution: Small intestine” value (SK-RC-52 xenografts; [3]) was 0.08 ± 0.02 % ID/g and the “Biodistribution: Spleen” value (SK-RC-52 xenografts; [3]) was 0.11 ± 0.03 % ID/g. The “Biodistribution: Stomach” value (SK-RC-52 xenografts; [3]) was 0.14 ± 0.03 % ID/g, the “Biodistribution: Tumor” value (SK-RC-52 xenografts; [3]) was 1.22 ± 0.54 % ID/g and the Tumor/Blood ratio (SK-RC-52 xenografts; [3]) was 45.4 ± 13.8. For the same compound, the Tumor/Kidney ratio (SK-RC-52 xenografts; [3]) was 2.7 ± 0.8, the Tumor/Muscle ratio (SK-RC-52 xenografts; [3]) was 75.1 ± 17.7 and the “Biodistribution: Bladder” value (SK-RC-52 xenografts; 48 hr post-injection) was 0.38 ± 0.18 % ID/g. The “Biodistribution: Blood” value (SK-RC-52 xenografts; 48 hr post-injection) was 0.06 ± 0.02 % ID/g, the “Biodistribution: Brain” value (SK-RC-52 xenografts; 48 hr post-injection) was 0.41 ± 0.05 % ID/g and the “Biodistribution: Fat” value (SK-RC-52 xenografts; 48 hr post-injection) was 0.25 ± 0.08 % ID/g. The “Biodistribution: Heart” value (SK-RC-52 xenografts; 48 hr post-injection) was 0.84 ± 0.16 % ID/g, the “Biodistribution: Kidney” value (SK-RC-52 xenografts; 48 hr post-injection) was 8.78 ± 1.89 % ID/g and the “Biodistribution: Liver” value (SK-RC-52 xenografts; 48 hr post-injection) was 1.65 ± 0.26 % ID/g. For the same compound, the “Biodistribution: Lung” value (SK-RC-52 xenografts; 48 hr post-injection) was 9.22 ± 1.25 % ID/g, the “Biodistribution: Muscle” value (SK-RC-52 xenografts; 48 hr post-injection) was 0.39 ± 0.28 % ID/g and the “Biodistribution: Pancreas” value (SK-RC-52 xenografts; 48 hr post-injection) was 0.59 ± 0.18 % ID/g. The “Biodistribution: Small intestine” value (SK-RC-52 xenografts; 48 hr post-injection) was 1.22 ± 0.44 % ID/g, the “Biodistribution: Spleen” value (SK-RC-52 xenografts; 48 hr post-injection) was 0.67 ± 0.13 % ID/g and the “Biodistribution: Stomach” value (SK-RC-52 xenografts; 48 hr post-injection) was 1.82 ± 0.43 % ID/g. The “Biodistribution: Tumor” value (SK-RC-52 xenografts; 48 hr post-injection) was 13.9 % ID/g and 13.92 ± 6.67 % ID/g, the Tumor/Blood ratio (SK-RC-52 xenografts; 48 hr post-injection) was 212.0 ± 41.4 and the Tumor/Kidney ratio (SK-RC-52 xenografts; 48 hr post-injection) was 1.5 ± 0.5. For the same compound, the Tumor/Muscle ratio (SK-RC-52 xenografts; 48 hr post-injection) was 52.0 ± 21.0 and the “SPECT/CT tumor imaging finding” value [1] was “radiotracer uptake in tumor as early as 1 h post-injection; also recorded: radiotracer uptake was observed within the tumors at 1 h post-injection; also recorded: enabled specific imaging of CAIX-expressing SK-RC-52 tumors”.
